Experimental data taken from patent publication US12202805B2, “Process for preparing (5S)-{[2-(4-carboxyphenyl)ethyl] |2-(2-{|3-chloro-4'-(trifluoromethyl)biphenyl-4-yl]methoxy}phenyl)ethyl]aminol-5,6,7,8-tetrahydroquinoline-2-carboxylic acid and its crystalline forms for use as pharmaceutically active compound” (Bayer Aktiengesellschaft, priority 2021, dated 2025).
Values joined by “and” are separate entries in the source; they are usually repeats but may differ in a detail not shown here. Equal entries are not always repeated.

Tested on: thromboxane A2 challenged PAH-minipig
Assay: Haemodynamics in the anesthetized thromboxane challenged minipig, intratracheal dry powder (PAP, BP)
Type: in vivo, Göttingen Minipigs
Experimental: Healthy Göttingen Minipigs® Ellegaard (Ellegaard, Denmark) of both sexes and having a weight of 2-6 kg were used. The animals were sedated by i.m. administration of about 25 mg/kg ketamine and about 10 mg/kg azaperone. Anaesthesia was initiated by i.v. administration of about 2 mg/kg ketamine and about 0.3 mg/kg midazolam. Maintenance of anaesthesia was by i.v. administration of about 7.5-30 mg/kg/h ketamine and about 1-4 mg/kg/h midazolam (rate of infusion 1-4 ml/kg/h) and about 150 μg/kg/h pancuronium bromide (for example Pancuronium-Actavis). After intubation, the animals were ventilated by the ventilator at a constant respiratory volume (10-12 ml/kg, 35 breaths/min; Avea®, Viasys Healthcare, USA, or Engström Carestation, GE Healthcare, Freiburg, Germany) such that an end-tidal CO2 concentration of about 5% was achieved. Ventilation was performed with room air, enriched with about 40% oxygen (normoxia). For the measurement of the haemodynamic parameters such as pulmonary arterial pressure (PAP), blood pressure (BP) and heart rate (HR), catheters were inserted into the carotid artery to measure the blood pressure, and a Swan-Ganz® catheter was introduced in a flow-directed manner via the jugular vein into the pulmonary artery. The haemodynamic signals were recorded and evaluated by means of pressure transducers (Combitransducer, B. Braun, Melsungen, Germany)/amplifiers and Ponemah® as data acquisition software.
As reference pure Lactose vehicle was applied in the beginning of each experiment.

O.O=C(O)c1ccc(CCN(CCc2ccccc2OCc2ccc(-c3ccc(C(F)(F)F)cc3)cc2Cl)[C@H]2CCCc3nc(C(=O)O)ccc32)cc1.O=C(O)c1ccc(CCN(CCc2ccccc2OCc2ccc(-c3ccc(C(F)(F)F)cc3)cc2Cl)[C@H]2CCCc3nc(C(=O)O)ccc32)cc1 [example 6a, (5S)—{[2-(4-Carboxyphenyl)ethyl][2-(2-{[3-chloro-4′-(trifluoromethyl)biphenyl-4-yl]methoxy}phenyl)-ethyl]amino}-5,6,7,8-tetrahydroquinoline-2-carboxylic acid semihydrate]
systemic blood pressure (375 μg/kg i.t., within the last hour of the observation interval): slightly affected
efficacy with regard to PAP reduction as well as systemic BP reduction (micronized hydrates, 1.5 mg/4 kg (=375 μg/kg) i.t.): comparable efficacy
BP (mean) (time 0 min, 375 μg/kg i.t.): 101 mmHg and 85 mmHg
PAP(mean) (time 0 min, 375 μg/kg i.t.): 39.6 mmHg and 40.8 mmHg and 38.5 mmHg
BP (mean) (time 10 min, 375 μg/kg i.t.): 103 mmHg and 83 mmHg and 79 mmHg
PAP(mean) (time 10 min, 375 μg/kg i.t.): 40.2 mmHg and 41.1 mmHg
BP (mean) (time 20 min, 375 μg/kg i.t.): 101 mmHg and 83 mmHg and 84 mmHg
PAP(mean) (time 20 min, 375 μg/kg i.t.): 40.4 mmHg and 41.3 mmHg
BP (mean) (time 30 min, 375 μg/kg i.t.): 100 mmHg and 81 mmHg and 88 mmHg
PAP(mean) (time 30 min, 375 μg/kg i.t.): 40.2 mmHg and 41.3 mmHg
BP (mean) (time 40 min, 375 μg/kg i.t.): 98 mmHg and 81 mmHg and 90 mmHg
PAP(mean) (time 40 min, 375 μg/kg i.t.): 40.4 mmHg and 41.8 mmHg and 41.0 mmHg
BP (mean) (time 50 min, 375 μg/kg i.t.): 99 mmHg and 78 mmHg and 89 mmHg
PAP(mean) (time 50 min, 375 μg/kg i.t.): 40.7 mmHg and 41.7 mmHg and 40.9 mmHg
BP (mean) (time 60 min, 375 μg/kg i.t.): 100 mmHg and 79 mmHg and 86 mmHg
BP, % changes vs. prevalues (time 60 min, 375 μg/kg i.t.): 100.6% and 99.7% and 97.2%
PAP(mean) (time 60 min, 375 μg/kg i.t.): 41.2 mmHg and 42.0 mmHg and 40.9 mmHg
PAP, % changes vs. prevalues (time 60 min, 375 μg/kg i.t.): 100.7% and 99.4% and 99.2%
BP (mean) (time 70 min, 375 μg/kg i.t.): 102 mmHg and 78 mmHg and 87 mmHg
BP, % changes vs. prevalues (time 70 min, 375 μg/kg i.t.): 102.6% and 98.4%
PAP(mean) (time 70 min, 375 μg/kg i.t.): 38.8 mmHg and 40.6 mmHg and 40.1 mmHg
PAP, % changes vs. prevalues (time 70 min, 375 μg/kg i.t.): 94.7% and 96.1% and 97.0%
BP (mean) (time 80 min, 375 μg/kg i.t.): 102 mmHg and 79 mmHg and 90 mmHg
BP, % changes vs. prevalues (time 80 min, 375 μg/kg i.t.): 102.6% and 99.7% and 101.8%
PAP(mean) (time 80 min, 375 μg/kg i.t.): 34.1 mmHg and 39.9 mmHg and 37.7 mmHg
PAP, % changes vs. prevalues (time 80 min, 375 μg/kg i.t.): 83.4% and 94.5% and 91.2%
BP (mean) (time 90 min, 375 μg/kg i.t.): 101 mmHg and 81 mmHg and 92 mmHg
BP, % changes vs. prevalues (time 90 min, 375 μg/kg i.t.): 101.6% and 102.2% and 104.0%
PAP(mean) (time 90 min, 375 μg/kg i.t.): 30.1 mmHg and 37.7 mmHg and 36.6 mmHg
PAP, % changes vs. prevalues (time 90 min, 375 μg/kg i.t.): 73.4% and 89.2% and 88.7%
BP (mean) (time 100 min, 375 μg/kg i.t.): 100 mmHg and 80 mmHg and 95 mmHg
BP, % changes vs. prevalues (time 100 min, 375 μg/kg i.t.): 100.6% and 101.0% and 107.4%
PAP(mean) (time 100 min, 375 μg/kg i.t.): 28.3 mmHg and 35.9 mmHg and 35.0 mmHg
PAP, % changes vs. prevalues (time 100 min, 375 μg/kg i.t.): 69.0% and 85.0% and 84.7%
BP (mean) (time 110 min, 375 μg/kg i.t.): 99 mmHg and 79 mmHg
BP, % changes vs. prevalues (time 110 min, 375 μg/kg i.t.): 99.6% and 99.7% and 111.9%
PAP(mean) (time 110 min, 375 μg/kg i.t.): 27.2 mmHg and 34.8 mmHg and 34.0 mmHg
PAP, % changes vs. prevalues (time 110 min, 375 μg/kg i.t.): 66.5% and 82.4% and 82.1%
BP (mean) (time 120 min, 375 μg/kg i.t.): 99 mmHg and 79 mmHg and 96 mmHg
BP, % changes vs. prevalues (time 120 min, 375 μg/kg i.t.): 99.6% and 99.7% and 108.6%
PAP(mean) (time 120 min, 375 μg/kg i.t.): 26.4 mmHg and 34.1 mmHg and 32.9 mmHg
PAP, % changes vs. prevalues (time 120 min, 375 μg/kg i.t.): 64.4% and 80.8% and 79.7%
BP (mean) (time 130 min, 375 μg/kg i.t.): 98 mmHg and 81 mmHg and 97 mmHg
BP, % changes vs. prevalues (time 130 min, 375 μg/kg i.t.): 98.6% and 102.2% and 109.7%
PAP(mean) (time 130 min, 375 μg/kg i.t.): 25.7 mmHg and 33.7 mmHg and 31.7 mmHg
PAP, % changes vs. prevalues (time 130 min, 375 μg/kg i.t.): 62.8% and 79.9% and 76.7%
BP (mean) (time 140 min, 375 μg/kg i.t.): 99 mmHg and 82 mmHg and 98 mmHg
BP, % changes vs. prevalues (time 140 min, 375 μg/kg i.t.): 99.6% and 103.5% and 110.8%
PAP(mean) (time 140 min, 375 μg/kg i.t.): 25.3 mmHg and 33.2 mmHg and 31.3 mmHg
PAP, % changes vs. prevalues (time 140 min, 375 μg/kg i.t.): 61.8% and 78.7% and 75.7%
BP (mean) (time 150 min, 375 μg/kg i.t.): 97 mmHg and 82 mmHg
BP, % changes vs. prevalues (time 150 min, 375 μg/kg i.t.): 97.6% and 103.5% and 109.7%
PAP(mean) (time 150 min, 375 μg/kg i.t.): 25.0 mmHg and 32.9 mmHg and 30.7 mmHg
PAP, % changes vs. prevalues (time 150 min, 375 μg/kg i.t.): 60.9% and 78.0% and 74.3%
BP (mean) (time 160 min, 375 μg/kg i.t.): 96 mmHg and 81 mmHg and 97 mmHg
BP, % changes vs. prevalues (time 160 min, 375 μg/kg i.t.): 96.6% and 102.2% and 109.7%
PAP(mean) (time 160 min, 375 μg/kg i.t.): 24.5 mmHg and 32.5 mmHg and 30.2 mmHg
